Test results: article PMC5041982, “Small-molecule inhibition of STAT3 in radioresistant head and neck squamous cell carcinoma” (Oncotarget, 2016)
Several values for one entry are separate records, joined by “and”; a condition that tells them apart may be missing. Identical values can stand only once.

Assays:
STAT3 = STAT3 (Homo sapiens, UniProt P40763); assay: STAT3/pY-peptide binding surface plasmon resonance (SPR) assay; conditions: for IC50: STAT3 200 nM, EGFR pY1068 dodecapeptide, mean, n ≥ 2, read-out: pY-Peptide Binding (SPR) IC50; for Inhibition of STAT3 binding to pY-peptide compared with C188: SPR
Method: The equilibrium binding levels obtained ± compound were normalized (resonance obtained in the presence of compound ÷ the resonance obtained in the absence of compound × 100) and plotted against Log [nM] […] B. Inhibition of ligand-stimulated STAT phosphorylation, measured by phosphoflow. Serum-starved (1 hour) Kasumi-1 cells, pre-incubated with compound/DMSO (1 hour), were treated with G-CSF (10 ng/ml, 15 min, left two panels) or IFN-γ (10ng/ml, 15 min, right panel). Cells were permeabilized and stained with Alexa647-pSTAT3, and PE-pSTAT1 antibodies and analyzed on BD LSR2. FCS files were uploaded to Cytobank for pSTAT3 and pSTAT1 quantitation. Histograms depicting pSTAT3 and pSTAT1 levels are shown. C. Mean fluorescence (pSTAT3/1) levels were plotted as function the Log [M] compound, and IC50 calculated using GraphPad. […] D. Inhibition of ligand-stimulated STAT phosphorylation, measured by Luminex. Serum-starved (1 hour) Kasumi-1 cells, pre-incubated with compound/DMSO (0/0.1/0.3/1/3/10/100 μM, 1 hour), were treated with G-CSF (10 ng/ml, 15′). Total protein extracts of cells were assayed for pSTAT3, pSTAT1, and GAPDH levels by Luminex. GAPDH-normalized pSTAT3 or pSTAT1 values were divided by this ratio for untreated cells and expressed in percentage. These values were plotted as a function of Log [M] compound, and IC50 values calculated using GraphPad. […]
3-D pharmacophore sorting used to evaluate the effect of each compound on STAT3 binding. Responses were normalized by dividing the […]
fingerprint screening were converted into 3-D structures compounds at 2 min and multiplying by 100. IC values […]
for analysis as described below. were determined by plotting % maximum response as a 3-D pharmacophore generation function of log concentration of compound and fitting the Each molecular chemical feature, including experimental points to a competitive binding model using hydrogen bond donor, hydrogen bond acceptor, positive a four parameter logistic equation: R = Rhigh − (Rhigh − R low)/ (1 + conc/A1)^A2, where R = percent response at and negative ionizable group, and hydrophobic region, inhibitor concentration, R = percent response with no was generated using the LigandScout application compound, R= percent response at highest compound high framework and projected into 3-D space. concentration, A2 = fitting parameter (slope) and A1 = low Feature-pairing IC50 (BIAevaluation Software version 4.1). The inhibition Each chemical feature was converted into distance constant (Ki) was derived from the Cheng-Prusoff bin and the complete set of distance bins used to construct equation Ki=IC50/(1+[C]/Kd) as used by Halling et al a cost matrix. The most favorable pairing based on cost where C stands for STAT3 concentration used in the SPR matrix was identified. assay and Kd denotes the dissociation constant for STAT3 3-D pharmacophore transformation binding to its phosphorylated EGFR ligand in the SPR […]
STAT3/pY-peptide binding assay and total protein extracted from cell pellets. […]
STAT3 binding assays were performed at 25 °C (Millipore, Danvers, MA) coupled to antibody against

pSTAT3 (Tyr-705) = biological target: T1, pSTAT3 (Tyr-705) (Homo sapiens, UniProt P40763); assay: Phosphoflow, G-CSF-induced STAT3 phosphorylation in Kasumi-1 cells; type: cell-based; conditions: Kasumi-1, G-CSF 10 ng/ml 15 min; mean, n ≥ 2; read-out: Ligand Induced Phosphorylation (Phosphoflow) pSTAT3 (GCSF) IC50
T1 construct: endogenous in cells; host or cells: Kasumi-1
Method: (§1) The equilibrium binding levels obtained ± compound were normalized (resonance obtained in the presence of compound ÷ the resonance obtained in the absence of compound × 100) and plotted against Log [nM] […] B. Inhibition of ligand-stimulated STAT phosphorylation, measured by phosphoflow. Serum-starved (1 hour) Kasumi-1 cells, pre-incubated with compound/DMSO (1 hour), were treated with G-CSF (10 ng/ml, 15 min, left two panels) or IFN-γ (10ng/ml, 15 min, right panel). Cells were permeabilized and stained with Alexa647-pSTAT3, and PE-pSTAT1 antibodies and analyzed on BD LSR2. FCS files were uploaded to Cytobank for pSTAT3 and pSTAT1 quantitation. Histograms depicting pSTAT3 and pSTAT1 levels are shown. C. Mean fluorescence (pSTAT3/1) levels were plotted as function the Log [M] compound, and IC50 calculated using GraphPad. […] D. Inhibition of ligand-stimulated STAT phosphorylation, measured by Luminex. Serum-starved (1 hour) Kasumi-1 cells, pre-incubated with compound/DMSO (0/0.1/0.3/1/3/10/100 μM, 1 hour), were treated with G-CSF (10 ng/ml, 15′). Total protein extracts of cells were assayed for pSTAT3, pSTAT1, and GAPDH levels by Luminex. GAPDH-normalized pSTAT3 or pSTAT1 values were divided by this ratio for untreated cells and expressed in percentage. These values were plotted as a function of Log [M] compound, and IC50 values calculated using GraphPad.
(§2) Phosphoflow analysis was done as described in Xu et al. Briefly, Kasumi-1 cells, were serum-starved, pre-treated with compound or DMSO (1 hour, RT) and then stimulated with 20 μl of GCSF (10 ng/ml) for 15 minutes at 37°C. The cells were then permeabilized and stained with Alexa647-pSTAT3, Alexa488-pSTAT5 and PE-pSTAT1 antibodies and analyzed using the BD LSR2. FCS files were exported and uploaded to Cytobank for determination of phosphoproteins as earlier. Gating was done on live, single cells and then gates selected for positive ligand-activated pSTAT3 and pSTAT1. IC50 values were calculated using the GraphPad Prism.

pSTAT5 = assay: Phosphoflow, G-CSF-induced pSTAT5 in Kasumi-1 cells; type: cell-based; conditions: mean, n ≥ 2, read-out: Ligand Induced Phosphorylation (Phosphoflow) pSTAT5 (G-CSF) IC50
Method: as §2

pSTAT1 (Tyr-701) = biological target: T2, pSTAT1 (Tyr-701) (Homo sapiens, UniProt P42224); assay: Phosphoflow, IFN-γ-induced pSTAT1 in Kasumi-1 cells; type: cell-based; conditions: Kasumi-1, IFN-γ 10 ng/ml 15 min; mean, n ≥ 2; read-out: Ligand Induced Phosphorylation (Phosphoflow) pSTAT1 (IFN-γ) IC50
T2 construct: endogenous in cells; host or cells: Kasumi-1
T2 sequence (P42224 1-750): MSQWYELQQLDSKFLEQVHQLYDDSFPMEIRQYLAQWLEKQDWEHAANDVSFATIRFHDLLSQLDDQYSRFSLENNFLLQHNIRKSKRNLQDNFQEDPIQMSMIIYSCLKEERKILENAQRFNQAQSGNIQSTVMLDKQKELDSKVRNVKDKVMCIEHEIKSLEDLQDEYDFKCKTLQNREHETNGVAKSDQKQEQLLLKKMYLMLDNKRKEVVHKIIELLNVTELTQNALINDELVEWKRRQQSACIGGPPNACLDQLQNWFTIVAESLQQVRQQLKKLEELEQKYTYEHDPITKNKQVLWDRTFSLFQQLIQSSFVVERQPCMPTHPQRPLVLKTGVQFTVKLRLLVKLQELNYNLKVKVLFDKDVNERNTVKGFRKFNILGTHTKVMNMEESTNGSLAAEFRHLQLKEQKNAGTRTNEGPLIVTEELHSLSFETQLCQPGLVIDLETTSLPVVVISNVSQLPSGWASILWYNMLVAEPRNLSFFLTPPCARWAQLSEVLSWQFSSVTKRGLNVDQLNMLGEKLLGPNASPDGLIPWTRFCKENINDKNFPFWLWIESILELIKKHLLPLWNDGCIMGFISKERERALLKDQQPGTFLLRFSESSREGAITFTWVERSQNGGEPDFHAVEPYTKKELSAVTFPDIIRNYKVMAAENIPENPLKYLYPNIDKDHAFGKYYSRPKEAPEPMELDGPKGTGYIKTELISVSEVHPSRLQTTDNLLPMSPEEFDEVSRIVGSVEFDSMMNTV
Method: as §1, §2

[1] = system: normal murine bone marrow colony formation; assay: Normal murine bone marrow colony formation; type: cell-based; conditions: studies not shown (Tweardy et al 2010, unpublished)

T1 sequence (P40763 whole entry): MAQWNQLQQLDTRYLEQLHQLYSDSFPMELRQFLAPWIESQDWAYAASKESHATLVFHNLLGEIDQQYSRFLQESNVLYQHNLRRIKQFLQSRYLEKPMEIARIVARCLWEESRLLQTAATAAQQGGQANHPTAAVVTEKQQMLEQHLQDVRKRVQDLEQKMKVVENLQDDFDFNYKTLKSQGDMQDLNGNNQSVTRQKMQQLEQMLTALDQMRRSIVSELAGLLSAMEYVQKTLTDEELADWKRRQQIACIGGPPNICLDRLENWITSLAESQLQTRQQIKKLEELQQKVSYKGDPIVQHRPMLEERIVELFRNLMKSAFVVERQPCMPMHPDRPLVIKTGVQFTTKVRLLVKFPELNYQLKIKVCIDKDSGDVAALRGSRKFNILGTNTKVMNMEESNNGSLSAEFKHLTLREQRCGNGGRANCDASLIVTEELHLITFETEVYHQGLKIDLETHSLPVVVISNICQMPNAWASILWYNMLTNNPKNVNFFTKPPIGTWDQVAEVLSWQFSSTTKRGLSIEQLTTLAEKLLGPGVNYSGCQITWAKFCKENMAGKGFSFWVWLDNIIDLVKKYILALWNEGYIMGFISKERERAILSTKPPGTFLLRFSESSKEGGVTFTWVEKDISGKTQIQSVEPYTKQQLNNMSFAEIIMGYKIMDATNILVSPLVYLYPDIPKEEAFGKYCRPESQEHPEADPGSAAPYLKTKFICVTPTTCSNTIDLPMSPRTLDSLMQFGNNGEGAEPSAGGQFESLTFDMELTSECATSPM
Chain of STAT3 (P40763 whole entry, species assumed): as the sequence (P40763 whole entry) above

Row | IC50 (STAT3) | IC50 (pSTAT3 (Tyr-705)) | IC50 (pSTAT5) | IC50 (pSTAT1 (Tyr-701)) | Inhibition of STAT3 binding to pY-peptide compared with C188 (STAT3) | Inhibition of normal murine bone marrow colony formation [1] | SMILES
1 | 45 ± 8.5 µM | > 300 µM | > 300 µM | 17 µM | – | – | CC1(C)CC(=O)c2c(oc3c2cc(NS(=O)(=O)c2ccc(Br)cc2)c2ccccc23)C1 [Compound C188-25]
2 | 4.7 ± 2.1 µM | 10.5 ± 13.4 µM | > 300 µM | 35 ± 39.6 µM | improved inhibition | inhibited | CC(C)OC(=O)C(C(=O)C(F)(F)F)c1cc(NS(=O)(=O)c2ccc(F)cc2)c2ccccc2c1O (centres unmarked) [Compound C188-7]
3 | 8 ± 2.8 µM | > 300 µM | > 300 µM | > 300 µM | activity similar to C188 | – | Cc1cc(C)c(S(=O)(=O)Nc2cc(Cl)c(O)c3ccccc23)cc1C [Compound C188-10]
4 | > 300 µM | > 300 µM | > 300 µM | > 300 µM | – | – | CC(=O)Nc1ccc(S(=O)(=O)Nc2cccc3ccccc23)cc1 [Compound C188-23]
5 | 73 ± 17 µM | > 300 µM | > 300 µM | > 300 µM | – | – | CCc1ccc(S(=O)(=O)Nc2cc3c(C(=O)OCCOC)c(C)oc3c3ccccc23)cc1 [Compound C188-22]
6 | 5.5 ± 4.9 µM | > 300 µM | > 300 µM | > 300 µM | improved inhibition | – | COc1ccc(OC)c(S(=O)(=O)Nc2cc(Sc3ccccc3)c(O)c3ccccc23)c1 [Compound C188-19]
7 | 20 ± 4.2 µM | 7.9 ± 5.8 µM | 6 µM | 10 µM | – | – | CC(C)(C)c1ccc(S(=O)(=O)Nc2cc3sc(=O)oc3c3ccccc23)cc1 [Compound C188-33]
8 | 5.5 ± 2.1 µM | 16.2 ± 24.1 µM | 1.5 µM | 50.5 ± 53 µM | improved inhibition | – | O=[N+]([O-])c1cccc(S(=O)(=O)Nc2cc(Sc3nc4ccccc4s3)c(O)c3ccccc23)c1 [Compound C188-1]
9 | 55 µM and 54.5 µM | > 300 µM | > 300 µM | > 300 µM | – | – | CC(=O)c1c(C)oc2c1cc(NS(=O)(=O)c1cc(C)ccc1C)c1ccccc12 [Compound C188-11]
10 | 70.5 ± 70 µM | > 300 µM | > 300 µM | > 300 µM | – | – | Cc1oc2c(cc(NS(=O)(=O)c3ccc(Cl)cc3)c3ccccc32)c1C(=O)OCc1ccccc1 [Compound C188-30]
11 | 27 ± 25.5 µM | > 300 µM | > 300 µM | 9 µM | – | – | CCOC(=O)c1c(C)oc2c1cc(NS(=O)(=O)c1cccc3cccnc13)c1ccccc12 [Compound C188-20]
12 | 13.5 ± 3.5 µM | > 300 µM | > 300 µM | > 300 µM | – | – | Cc1cc(S(=O)(=O)Nc2cc3c4c(oc3c3ccccc23)CCCC4=O)ccc1Cl [Compound C188-34]
13 | > 300 µM | > 300 µM | > 300 µM | > 300 µM | – | – | O=S(=O)(Nc1cccc2ccccc12)c1ccc(Cl)cc1 [Compound C188-24]
14 | > 300 µM | > 300 µM | > 300 µM | > 300 µM | – | – | O=S(=O)(Nc1ccc(O)c2ccccc12)c1cccc2cccnc12 [Compound C188-39]
15 | 1.5 ± 0.7 µM | 3.3 ± 0.2 µM | 12 ± 1.4 µM | – | improved inhibition | inhibited | O=S(=O)(Nc1cc(Sc2nc[nH]n2)c(O)c2ccccc12)c1ccc(Br)cc1 [Compound C188-15]
16 | 31.5 ± 7.8 µM | > 300 µM | > 300 µM | > 300 µM | – | – | CC(C)(C)c1ccc(S(=O)(=O)Nc2cc3c4c(oc3c3ccccc23)CCCC4=O)cc1 [Compound C188-36]
17 | > 300 µM | > 300 µM | > 300 µM | > 300 µM | – | – | CC(=O)Nc1c([N+](=O)[O-])cc(NS(=O)(=O)c2ccccc2)c2ccccc12 [Compound C188-12]
